Measurements published in ChEMBL document CHEMBL4422616, “The P-glycoprotein inhibitor diltiazem-like 8-(4-chlorophenyl)-5-methyl-8-[(2Z)-pent-2-en-1-yloxy]-8H-[1,2,4]oxadiazolo[3,4-c][1,4]thiazin-3-one inhibits esterase activity and H3 histone acetylation” (Eur J Med Chem, 2019).
The source made the active and inactive calls. The rule behind the calls is not given here.

Columns and labels:
HepG2 [1] = assay: Inhibition of HAT in human HepG2 cells assessed as decrease in histone H3 acetylation at Lys27 residues at 100 uM incubated for 48 hrs in presence of TSA by Western blot analysis; assay type: cell-based
HepG2 [2] = assay: Inhibition of HAT in human HepG2 cells assessed as decrease in histone H3 acetylation at Lys27 residues at 100 uM incubated for 48 hrs by Western blot analysis relative to control; assay type: cell-based
HEK293 [3] = assay: Cytotoxicity against HEK293 cells assessed as reduction in cell viability up to 100 uM after 48 hrs by MTT assay; assay type: cell-based; conditions: human, hek293, 48 h
HepG2 [4] = assay: Cytotoxicity against human HepG2 cells assessed as reduction in cell viability up to 100 uM after 48 hrs by MTT assay; assay type: cell-based; conditions: hepg2, 48 h
HEK293 [5] = assay: Inhibition of HAT in HEK293 cells assessed as decrease in histone H3 acetylation at Lys27 residues at 100 uM incubated for 48 hrs in presence of TSA by Western blot analysis; assay type: cell-based; conditions: Homo sapiens
HEK293 [6] = assay: Cytotoxicity against HEK293 cells assessed as reduction in cell viability at 500 uM after 24 to 48 hrs by MTT assay relative to control; assay type: cell-based; conditions: human, hek293, 500 µM
[7] = molecular target: Acetylcholinesterase (Homo sapiens) (UniProt P22303); assay: Inhibition of AChE (unknown origin) assessed as residual activity at 10 uM using acetylthiocholine chloride as substrate measured for 10 mins (reference value: 100 +/- 1.2%)
HepG2 [8] = assay: Inhibition of esterase in human hepG2 cells at 100 uM after 1 hr by calcein-AM dye-based fluorescence assay relative to control; assay type: cell-based
[9] = molecular target: Acetylcholinesterase (Homo sapiens) (UniProt P22303); assay: Inhibition of AChE (unknown origin) assessed as residual activity at 50 uM using acetylthiocholine chloride as substrate measured for 10 mins (reference value: 100 +/- 1.2%)
HepG2 [10] = assay: Cytotoxicity against human HepG2 cells assessed as reduction in cell viability at 500 uM after 24 to 48 hrs by MTT assay relative to control; assay type: cell-based; conditions: hepg2, 500 µM
HepG2 [11] = assay: Cytotoxicity against human HepG2 cells assessed as morphological alteration up to 100 uM after 48 hrs by MTT assay; assay type: cell-based; conditions: hepg2, 48 h
HEK293 [12] = assay: Cytotoxicity against HEK293 cells assessed as morphological alteration up to 100 uM after 48 hrs by MTT assay; assay type: cell-based; conditions: human, hek293, 48 h
[13] = molecular target: ATP-binding cassette sub-family C member 6 (Homo sapiens, UniProt O95255); assay: Inhibition of ABCC6 (unknown origin) expressed in HEK293 cells assessed as increase in doxorubicin efflux at 100 uM after 30 mins by fluorescence assay; assay type: cell-based; conditions: hek293, 0.5 h
[14] = molecular target: Acetylcholinesterase (Homo sapiens) (UniProt P22303); assay: Inhibition of AChE (unknown origin) assessed as residual activity at 100 uM using acetylthiocholine chloride as substrate measured for 10 mins (reference value: 100 +/- 1.2%)
[15] = molecular target: Acetylcholinesterase (Homo sapiens) (UniProt P22303); assay: Inhibition of AChE (unknown origin) using acetylthiocholine chloride as substrate measured for 10 mins
HEK293 [16] = assay: Inhibition of esterase in HEK293 cells at 100 uM after 1 hr by calcein-AM dye-based fluorescence assay relative to control; assay type: cell-based; conditions: Homo sapiens
HEK293 [17] = assay: Inhibition of HAT in HEK293 cells assessed as decrease in histone H3 acetylation at Lys27 residues at 100 uM incubated for 48 hrs by Western blot analysis relative to control; assay type: cell-based; conditions: Homo sapiens

Acetylcholinesterase (Homo sapiens), sequence (P22303 whole entry): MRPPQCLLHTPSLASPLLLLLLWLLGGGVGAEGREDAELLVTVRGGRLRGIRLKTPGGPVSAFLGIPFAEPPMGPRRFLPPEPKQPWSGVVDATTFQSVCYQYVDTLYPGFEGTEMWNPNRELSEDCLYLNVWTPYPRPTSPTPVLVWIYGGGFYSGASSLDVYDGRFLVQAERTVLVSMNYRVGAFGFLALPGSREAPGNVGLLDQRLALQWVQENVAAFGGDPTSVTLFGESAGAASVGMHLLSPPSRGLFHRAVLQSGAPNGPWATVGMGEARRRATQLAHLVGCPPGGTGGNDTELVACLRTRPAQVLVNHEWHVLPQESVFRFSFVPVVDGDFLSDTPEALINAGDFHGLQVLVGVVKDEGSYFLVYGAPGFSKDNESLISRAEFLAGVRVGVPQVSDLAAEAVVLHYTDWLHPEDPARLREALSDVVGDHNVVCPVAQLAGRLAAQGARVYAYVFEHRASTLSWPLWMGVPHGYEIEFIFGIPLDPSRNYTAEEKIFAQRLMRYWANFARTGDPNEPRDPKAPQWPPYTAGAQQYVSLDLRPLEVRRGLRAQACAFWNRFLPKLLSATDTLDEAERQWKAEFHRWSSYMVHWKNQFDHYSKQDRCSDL
ATP-binding cassette sub-family C member 6, sequence (O95255 whole entry): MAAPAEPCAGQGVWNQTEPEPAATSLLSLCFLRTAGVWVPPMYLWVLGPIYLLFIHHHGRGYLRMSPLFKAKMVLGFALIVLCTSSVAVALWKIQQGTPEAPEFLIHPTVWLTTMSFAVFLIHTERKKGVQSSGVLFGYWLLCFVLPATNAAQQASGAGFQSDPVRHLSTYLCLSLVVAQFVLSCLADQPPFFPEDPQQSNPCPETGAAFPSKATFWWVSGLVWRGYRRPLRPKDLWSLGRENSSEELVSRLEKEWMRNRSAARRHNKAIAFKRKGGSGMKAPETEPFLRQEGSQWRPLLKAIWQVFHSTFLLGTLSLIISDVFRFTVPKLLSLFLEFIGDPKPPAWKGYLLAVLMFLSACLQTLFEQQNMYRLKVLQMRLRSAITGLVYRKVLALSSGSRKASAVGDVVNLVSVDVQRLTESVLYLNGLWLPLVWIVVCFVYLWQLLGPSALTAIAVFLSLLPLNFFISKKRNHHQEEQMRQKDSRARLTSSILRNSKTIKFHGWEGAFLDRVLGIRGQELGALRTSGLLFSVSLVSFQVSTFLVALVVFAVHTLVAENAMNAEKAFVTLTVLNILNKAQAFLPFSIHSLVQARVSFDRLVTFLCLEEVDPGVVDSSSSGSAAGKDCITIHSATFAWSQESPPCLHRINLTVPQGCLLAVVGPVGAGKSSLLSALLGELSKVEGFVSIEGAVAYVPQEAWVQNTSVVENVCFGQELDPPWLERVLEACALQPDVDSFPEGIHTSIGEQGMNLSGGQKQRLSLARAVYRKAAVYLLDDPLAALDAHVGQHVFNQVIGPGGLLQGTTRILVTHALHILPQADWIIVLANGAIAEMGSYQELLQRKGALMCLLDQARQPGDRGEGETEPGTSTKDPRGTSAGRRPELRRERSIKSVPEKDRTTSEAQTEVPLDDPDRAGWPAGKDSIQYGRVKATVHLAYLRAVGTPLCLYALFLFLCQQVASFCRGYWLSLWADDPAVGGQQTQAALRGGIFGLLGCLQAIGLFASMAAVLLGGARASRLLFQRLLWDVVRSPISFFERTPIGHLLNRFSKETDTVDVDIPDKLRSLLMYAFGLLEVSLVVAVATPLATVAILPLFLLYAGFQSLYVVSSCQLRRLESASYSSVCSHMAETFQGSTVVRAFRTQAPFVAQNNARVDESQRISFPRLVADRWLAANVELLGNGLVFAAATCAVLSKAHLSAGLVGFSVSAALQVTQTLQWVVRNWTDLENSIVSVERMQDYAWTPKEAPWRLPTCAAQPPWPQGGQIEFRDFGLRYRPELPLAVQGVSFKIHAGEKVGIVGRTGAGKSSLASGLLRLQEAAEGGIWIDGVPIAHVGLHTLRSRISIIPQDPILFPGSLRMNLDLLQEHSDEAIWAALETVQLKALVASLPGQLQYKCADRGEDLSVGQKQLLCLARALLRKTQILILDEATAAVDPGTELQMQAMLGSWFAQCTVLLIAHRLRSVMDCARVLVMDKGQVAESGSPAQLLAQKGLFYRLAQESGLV

CC/C=C\COC1(c2ccc(Cl)cc2)SC=C(C)n2c1noc2=O (configuration not stated)
inhibition (HepG2 [1]): Active
inhibition (HepG2 [2]): 56%
Activity (HEK293 [3]): Non-Toxic
Activity (HepG2 [4]): Non-Toxic
inhibition (HEK293 [5]): Active
Activity (HEK293 [6]): 50%
Activity [7]: 80%
inhibition (HepG2 [8]): 50%
Activity [9]: 61%
Activity (HepG2 [10]): 50%
Activity (HepG2 [11]): Non-Toxic
Activity (HEK293 [12]): Non-Toxic
inhibition (INH) [13]: Active
Activity [14]: 56%
inhibition [15]: Dose-dependent effect
inhibition (HEK293 [16]): 60%
inhibition (HEK293 [17]): 80%
